± gives the uncertainty stated by the source.
Experiment: xn = mol fraction of the nth substance listed

COC(=O)CC(C)=O + COC(=O)c1ccccc1
viscosity [mPa·s], 101.33 kPa
Settings	x1 = 0.0981	x1 = 0.1935	x1 = 0.2966	x1 = 0.4001	x1 = 0.4987	x1 = 0.5986	x1 = 0.6984	x1 = 0.798	x1 = 0.8977
298.15 K	1.775 ± 0.022	1.732 ± 0.022	1.703 ± 0.022	1.667 ± 0.021	1.639 ± 0.021	1.615 ± 0.021	1.598 ± 0.02	1.583 ± 0.02	1.569 ± 0.02
303.15 K	1.609 ± 0.02	1.573 ± 0.02	1.548 ± 0.02	1.515 ± 0.019	1.49 ± 0.019	1.469 ± 0.019	1.453 ± 0.019	1.44 ± 0.019	1.429 ± 0.018
308.15 K	1.467 ± 0.019	1.435 ± 0.018	1.413 ± 0.018	1.382 ± 0.018	1.362 ± 0.018	1.343 ± 0.017	1.329 ± 0.017	1.316 ± 0.017	1.306 ± 0.017

COC(=O)CC(C)=O + COC(C)=O
viscosity [mPa·s], 101.33 kPa
Settings	x1 = 0.0996	x1 = 0.1998	x1 = 0.3009	x1 = 0.397	x1 = 0.4973	x1 = 0.5975	x1 = 0.6969	x1 = 0.7993	x1 = 0.9006
298.15 K	0.448 ± 0.013	0.52 ± 0.015	0.596 ± 0.016	0.688 ± 0.018	0.798 ± 0.021	0.915 ± 0.023	1.044 ± 0.026	1.202 ± 0.03	1.373 ± 0.033
303.15 K	0.424 ± 0.012	0.489 ± 0.014	0.564 ± 0.016	0.643 ± 0.017	0.744 ± 0.02	0.843 ± 0.022	0.963 ± 0.024	1.104 ± 0.027	1.257 ± 0.031
308.15 K	0.403 ± 0.012	0.463 ± 0.013	0.533 ± 0.015	0.603 ± 0.016	0.696 ± 0.018	0.786 ± 0.02	0.913 ± 0.023	1.024 ± 0.026	1.155 ± 0.029

COc1ccc(C=O)cc1 + COCCO
viscosity [mPa·s], 101 kPa
Settings	x1 = 0.0753	x1 = 0.1549	x1 = 0.2391	x1 = 0.3283	x1 = 0.4231	x1 = 0.5238	x1 = 0.6311	x1 = 0.7457	x1 = 0.8684
303.15 K	1.502 ± 0.15	1.518 ± 0.15	1.567 ± 0.16	1.656 ± 0.17	1.793 ± 0.18	1.984 ± 0.2	2.242 ± 0.22	2.577 ± 0.26	3.006 ± 0.3
308.15 K	1.463 ± 0.15	1.488 ± 0.15	1.537 ± 0.15	1.614 ± 0.16	1.723 ± 0.17	1.87 ± 0.19	2.062 ± 0.21	2.308 ± 0.23	2.617 ± 0.26
313.15 K	1.214 ± 0.12	1.258 ± 0.13	1.32 ± 0.13	1.404 ± 0.14	1.513 ± 0.15	1.651 ± 0.17	1.824 ± 0.18	2.037 ± 0.2	2.298 ± 0.23
318.15 K	1.129 ± 0.11	1.175 ± 0.12	1.236 ± 0.12	1.312 ± 0.13	1.408 ± 0.14	1.525 ± 0.15	1.669 ± 0.17	1.843 ± 0.18	2.054 ± 0.21

COc1ccc(C=O)cc1 + Cc1cc(C)cc(C)c1
viscosity [mPa·s], 101 kPa
Settings	x1 = 0.1142	x1 = 0.2248	x1 = 0.3321	x1 = 0.4361	x1 = 0.537	x1 = 0.635	x1 = 0.7302	x1 = 0.8227	x1 = 0.9126
303.15 K	0.686 ± 0.19	0.766 ± 0.2	0.825 ± 0.22	1.044 ± 0.26	1.283 ± 0.32	1.581 ± 0.38	1.77 ± 0.42	2.826 ± 0.66	2.963 ± 0.68
308.15 K	0.645 ± 0.18	0.713 ± 0.19	0.7707 ± 0.2	0.96 ± 0.25	1.148 ± 0.29	1.395 ± 0.34	1.582 ± 0.38	2.452 ± 0.57	2.665 ± 0.62
313.15 K	0.438 ± 0.13	0.487 ± 0.14	0.547 ± 0.15	0.676 ± 0.18	0.825 ± 0.22	1 ± 0.26	1.094 ± 0.28	1.859 ± 0.44	1.969 ± 0.47
318.15 K	0.392 ± 0.12	0.435 ± 0.13	0.5 ± 0.14	0.614 ± 0.17	0.733 ± 0.2	0.9 ± 0.23	1 ± 0.25	1.517 ± 0.37	1.713 ± 0.41

COc1ccc(C=O)cc1 + Cc1ccc(O)cc1
Settings	viscosity [mPa·s]
308.15 K, 101 kPa, x1 = 0.8868	3.965 ± 0.031

COc1ccc(C=O)cc1 + Cc1cccc(O)c1
Settings	viscosity [mPa·s]
318.15 K, 101 kPa, x1 = 0.4656	4.085 ± 0.03

CCCC[n+]1ccc(C)cc1.[Cl][Al-]([Cl])([Cl])[Cl] + Cc1ccccc1
101 kPa, x2 = 0.38
Settings	viscosity [mPa·s]
298.15 K	13.8 ± 0.6
303.15 K	12.8 ± 0.6
308.15 K	10.8 ± 0.5
313.15 K	9.4 ± 0.4
318.15 K	8.5 ± 0.4
323.15 K	7.6 ± 0.3

CCOC(C)=O + Cc1ccccc1
viscosity [mPa·s], 101 kPa
Settings	298.15 K	308.15 K
x1 = 0.045	0.538 ± 0.005	0.49 ± 0.004
x1 = 0.1	0.534 ± 0.006	–
x1 = 0.1501	0.514 ± 0.004	0.472 ± 0.004
x1 = 0.21	0.512 ± 0.005	–
x1 = 0.2483	0.495 ± 0.004	0.457 ± 0.004
x1 = 0.31	0.506 ± 0.005	–
x1 = 0.3517	0.478 ± 0.004	0.443 ± 0.004
x1 = 0.41	0.484 ± 0.005	–
x1 = 0.4469	0.464 ± 0.004	0.431 ± 0.004
x1 = 0.4912	0.459 ± 0.004	0.426 ± 0.004
x1 = 0.51	0.482 ± 0.005	–
x1 = 0.5503	0.452 ± 0.004	0.42 ± 0.004
x1 = 0.61	0.478 ± 0.005	–
x1 = 0.6489	0.443 ± 0.004	0.411 ± 0.004
x1 = 0.71	0.455 ± 0.005	–
x1 = 0.749	0.436 ± 0.004	0.403 ± 0.004
x1 = 0.81	0.445 ± 0.005	–
x1 = 0.8507	0.431 ± 0.004	0.395 ± 0.004
x1 = 0.9	0.428 ± 0.005	–
x1 = 0.9432	0.429 ± 0.004	0.39 ± 0.004
x2 = 0.1513	0.466 ± 0.006	–
x2 = 0.442	0.481 ± 0.007	–
x2 = 0.7034	0.509 ± 0.007	–

COc1ccc(C=O)cc1 + Cc1ccccc1
viscosity [mPa·s], 101 kPa
Settings	x1 = 0.0899	x1 = 0.1818	x1 = 0.2759	x1 = 0.3721	x1 = 0.4706	x1 = 0.5714	x1 = 0.6747	x1 = 0.7805	x1 = 0.8889
303.15 K	0.5703 ± 0.16	0.6449 ± 0.18	0.7185 ± 0.19	0.9019 ± 0.23	1.099 ± 0.28	1.356 ± 0.33	1.551 ± 0.38	2.61 ± 0.61	2.857 ± 0.66
308.15 K	0.5414 ± 0.15	0.6128 ± 0.17	0.6929 ± 0.19	0.8502 ± 0.22	1.018 ± 0.26	1.258 ± 0.31	1.388 ± 0.34	2.218 ± 0.52	2.505 ± 0.59
313.15 K	0.512 ± 0.15	0.5751 ± 0.16	0.6448 ± 0.18	0.7809 ± 0.21	0.9332 ± 0.24	1.122 ± 0.28	1.259 ± 0.31	2.011 ± 0.48	2.165 ± 0.51
318.15 K	0.4586 ± 0.13	0.5216 ± 0.15	0.5862 ± 0.16	0.7004 ± 0.19	0.8327 ± 0.22	0.9898 ± 0.25	1.098 ± 0.28	1.65 ± 0.4	1.825 ± 0.44

COc1ccc(C=O)cc1 + Cc1ccccc1O
308.15 K, 101 kPa
Settings	viscosity [mPa·s]
x1 = 0.7753	3.815 ± 0.029
x1 = 0.8859	3.475 ± 0.026

CCCCCCC(=O)O + ClC(Cl)(Cl)Cl
298.15 K, 101 kPa
Settings	viscosity [mPa·s]
x1 = 0.06	0.99 ± 0.026
x1 = 0.12	1.08 ± 0.028
x1 = 0.17	1.175 ± 0.031
x1 = 0.23	1.271 ± 0.033
x1 = 0.44	1.767 ± 0.046
x1 = 0.54	2.046 ± 0.053
x1 = 0.64	2.362 ± 0.062
x1 = 0.83	3.015 ± 0.078
